assay: Human HepG2 cell viability assay in 384 well format; format: toxicity, cell-based; design: dose 125 nL, time 70.5 hour; concentration not given beside the values; settings: HepG2 cells, read-out: Inhibition

In order of falling cytotoxicity at 70.5 h:
1. CSCCC1c2nc[nH]c2CCN1Cc1cncn1C (stereo not drawn)  33.9%
2. Fc1cccc(O[C@@H]2C[C@H]3CN(Cc4ccccn4)CCN3C2)c1  27.5%
3. Cn1nnnc1SCCNC(=O)C1CCN(C(=O)C2CC2)CC1  24.5%
4. O=C(Cn1cccn1)NCC1(c2ccccc2)CC1  24.2%
5. CC(=O)c1ccc(-n2c(C)cn(CCC#N)c2=O)cc1  22.1%
6. Cc1ccc(C)c2c(O)cc(CNCC(=O)N3CCCC3)nc12  22%
7. Cc1cc(C)n(CC2CCCN2C(=O)c2ccc(NC3CC3)nc2)n1 (stereo not drawn)  20.6%
8. CCO[C@H]1COC[C@@H]1NC(=O)c1c[nH]nc1C1CCCCC1  19.5%
9. COc1ccc(C2=CCN(C(=O)C3CCS(=O)(=O)C3)CC2)cc1 (stereo not drawn)  19.4%
10. CCS(=O)(=O)N1CCC(C(=O)NC(Cc2ccsc2)c2nccs2)CC1 (stereo not drawn)  18.9%
11. O=C(CCn1cnnn1)N1CCCC(CO)(CCc2ccccc2)C1 (stereo not drawn)  18%
12. CNC(=O)c1cnc(/C=C/c2cc(OC)cc(OC)c2)s1  17.6%
13. O=C(Cc1ccsc1)N1CCCC(c2cc(C(F)F)n3ncnc3n2)C1 (stereo not drawn)  14.6%
14. O=C(N1CCCO1)[C@@]12CCO[C@@H]1CCN(C1CCCCC1)C2  14%
15. O=C(CCC1CCCO1)NCc1ccc(Br)cc1F (stereo not drawn)  12.7%
16. CN(C)C(=O)c1ccc2c(c1)N(C)C(CC(=O)NCCOCCO)CO2 (stereo not drawn)  12.2%
17. CN1C(=O)CCc2cc(NC(=O)C3CC3)ccc21  10.6%
18. N#Cc1nccnc1N1CCC(C(O)c2cccs2)CC1 (stereo not drawn)  10.4%
19. O=C(O)c1ccc2c(c1)C1(CCCCC1)CN2C(=O)c1cccc(F)c1  8.94%
20. COc1ccc2[nH]cc(C(=O)CNc3nc(C)cs3)c2c1  6.66%
21. O=C(c1ccccc1)N1CCC2(CCCN2c2ncccn2)CC1  3.93%
22. Cc1nc(-c2cccc(Cl)c2)n(CC(=O)NCC2CCCO2)c(=O)c1C (stereo not drawn)  3.53%
23. Cc1nn(C)c(C)c1OCC(=O)NCc1cccc(C(=O)O)c1  3.51%
24. Cc1cc(C)n(CC(C)NCCn2nc(C)c(Cl)c2C)n1 (stereo not drawn)  3.47%
25. Cc1nc(C2CCCN2C(=O)CCCn2cccn2)no1 (stereo not drawn)  3.27%
26. NC(=O)c1cn(CC2CCC2)c(C2CC2)n1  3.19%
27. O=C(c1ccc2c(c1)CCCC2)N1CCn2ncnc2C1  2.9%
28. COc1cccc(-c2noc(-c3ccc(NCCCO)nc3)n2)c1OC  2.28%
29. COc1cc2c(nn1)CCN(Cc1nc(Cc3ccccc3)no1)C2  2.14%
30. CC(C)C(=O)N1CC[C@@H]2[C@H](CC1)N(Cc1cccnc1)CCS2(=O)=O  2.07%
31. COc1ccccc1C(NC(=O)C1CCCC1)c1noc(C)n1 (stereo not drawn)  1.95%
32. CNS(=O)(=O)CC(=O)N(Cc1c(F)cccc1F)C1CCCC1  1.88%
33. CN(C)C1CCN(C(=O)c2ccc(Cn3ccccc3=O)o2)CC1  1.64%
34. CCc1cnc(CCNC(=O)N2CCCC(c3ncc[nH]3)C2)s1 (stereo not drawn)  1.32%
35. Cc1cc(C(=O)N2CCc3[nH]nc(-c4ccc5c(c4)OCO5)c3C2)no1  1.25%
36. COC(=O)C(C)(C)NC(=O)C1CC(=O)N(CC(F)(F)F)C1 (stereo not drawn)  0.904%
37. CN(C(=O)CCc1nc(C2CC2)no1)c1cc(C#N)c2ccccc2n1  0.74%
38. O=C(C1=CCCC1)N1CCC[C@]2(C[C@@H](OCc3ccncc3)CO2)C1  0.64%
39. c1ccc(C(Cn2cnnc2)N2CCOCC2)nc1 (stereo not drawn)  0.586%
40. CS(=O)(=O)N1CCN(c2ccc3ccc(C(=O)NC4CC4)cn23)CC1  0.444%
41. Cc1nn(C)c(N(C)C)c1CNCc1ccc(OCC(N)=O)cc1  0.111%
42. CC(=O)N1CCCC1c1cccc(Cc2ccccc2Cl)n1 (stereo not drawn)  0.0226%
43. CCOC(=O)N1CCC(NC(C)Cc2cc(C)n[nH]2)CC1 (stereo not drawn)  -0.223%
44. Cc1nc2n(n1)CC(NCC(=O)NCCCOC(C)C)CC2 (stereo not drawn)  -0.276%
45. CC(C)C1CN(c2cnccn2)CCC(=O)N1Cc1ccc(F)cc1 (stereo not drawn)  -0.619%
46. Cc1oncc1C(=O)N[C@@H]1CN(C2CCC2)C[C@@H]2CCCO[C@@H]21  -0.67%
47. CCOc1cc(CN2CCCC2)ccc1Oc1cccc(C#N)n1  -1.2%
48. CC(C)n1c(C2CCCN(CC(=O)NC3CC3)C2)nc2ccccc21 (stereo not drawn)  -1.26%
49. Cc1ccc(-c2n[nH]cc2CNCC2CCN(CC(C)O)CC2)cc1 (stereo not drawn)  -1.53%
50. Cc1nc[nH]c1CN1CCOC(c2ccc(Cl)c(Cl)c2)C1 (stereo not drawn)  -2.06%
51. Cc1cc(C)nc(N2CCC(C(=O)Nc3ccc(C(C)C)cc3)CC2)n1  -2.09%
52. Cc1ccc2nc(C)c(C)c(C(=O)NCCCn3cnnc3)c2c1  -2.61%
53. Cc1ccc(CN2CCc3ncc(CNC(=O)C4CCC4)n3CC2)o1  -2.7%
54. CN(Cc1cn2c(n1)CN(C(=O)c1cccnc1)CC2)Cc1ccco1  -2.78%
55. O=C(c1cnccn1)N1CCC(Cc2cnc3[nH]ccc3c2)CC1  -2.92%
56. COC(CNC(=O)CNC(=O)c1ccccc1)c1cccc(Cl)c1 (stereo not drawn)  -2.92%
57. CCc1cc(CN(C)C(=O)c2cnon2)on1  -2.96%
58. CCC(C(=O)NCc1ccncc1)N(c1ccccc1)S(C)(=O)=O (stereo not drawn)  -3.1%
59. COc1cc(Oc2cnc3ccccc3n2)ccc1CN1CCCC1  -3.39%
60. Cc1csc(C(=O)N2CCC(O)(CN3CCc4ccccc4C3)C2)c1 (stereo not drawn)  -3.4%
61. COCCC(=O)NC(C)(C(N)=O)c1cccc(Cl)c1 (stereo not drawn)  -3.41%
62. COCC1c2nnn(C)c2CCN1C(=O)Cc1ccccn1 (stereo not drawn)  -3.79%
63. COc1ccc(Cn2cc(C(=O)N(C)Cc3ccon3)nn2)cc1  -3.92%
64. CO[C@H]1COCCN(C(=O)c2cc(C)oc2C(F)(F)F)C1  -3.96%
65. O=C(c1cc(C2CC2)[nH]n1)N1CCN(Cc2ccccc2)CC1  -4.29%
66. Cc1ccc(Oc2ncccc2C(=O)N(C)CC2OCCO2)c(C)c1  -4.31%
67. COC[C@H]1CCC[C@]12CN(S(=O)(=O)c1cccs1)CCO2  -4.35%
68. COc1cc(CNC(=O)c2c(C)noc2C)ccn1  -4.45%
69. COCC(=O)NCCc1nc2cc(-c3ccc(OC)cc3)ncn2n1  -5.33%
70. Cc1ccc(F)cc1-n1c(COC(C)C)n[nH]c1=O  -5.58%
71. CC(C)CSCCCNC(=O)C1CCOC1 (stereo not drawn)  -5.76%
72. COCCCC1(CO)CCCN(CCS(C)(=O)=O)C1 (stereo not drawn)  -6%
73. CS(=O)(=O)N(Cc1ccon1)c1ccc2c(c1)OCO2  -6.03%
74. CCc1nsc(N2CCN(C(=O)COc3ccccc3)CC2)n1  -6.06%
75. Cc1ccc(CN2CC[C@H]3C[C@H](c4nc(C5CC5)cs4)O[C@@H]3C2)o1  -6.11%
76. Cn1nc(CO)c2c1CCN(c1ncnc3c1CCNC3)C2  -6.14%
77. Cc1cnn(CC2CN(Cc3cccnc3)CCO2)c1 (stereo not drawn)  -6.35%
78. O=C([C@H]1CC[C@@H]2[C@@H](CCN2Cc2ccsc2)O1)N1CCOCC1  -6.53%
79. COC(=O)c1cccc2nc([C@H]3CCN(Cc4ccccc4F)C3)oc12  -6.68%
80. O=C([C@H]1CN(Cc2cccnc2)C[C@H]2OCC[C@@H]12)N1CCCO1  -6.93%
81. Cc1cccnc1NC(=O)NC(C)Cn1cccn1 (stereo not drawn)  -7.34%
82. CC(C)c1nc(C2CCCN(C(=O)c3nccn4ccnc34)C2)no1 (stereo not drawn)  -7.38%
83. C1CC(c2nnc(CN3CCCC3c3noc(C4CC4)n3)o2)C1 (stereo not drawn)  -7.54%
84. CCOCC(=O)Nc1ccc(N2CCSCC2)cc1C  -7.62%
85. CC1CCc2nc(O)c(C(=O)NCCc3cccs3)cc2C1 (stereo not drawn)  -7.76%
86. Cc1cc(C)cc(N2CCN(Cc3cccnc3)CC2=O)c1  -7.86%
87. Cc1ccc(N2CCCC(N3CCC4(CC3)OCCO4)C2=O)cc1 (stereo not drawn)  -7.88%
88. CC(C)n1cc2cc(NC(=O)Cn3cnnn3)ccc2n1  -7.92%
89. O=C1CSC(c2ccncc2)c2c[nH]nc2N1 (stereo not drawn)  -8.06%
90. O=C1CC[C@@H]2[C@@H](CCN2C(=O)C2CCOCC2)N1CC1CC1  -8.18%
91. CC(C)c1noc(CN(Cc2ccc(F)cc2)C2CC2)n1  -8.41%
92. Cc1cc(C2CCCN(CCc3ccc4c(c3)CCO4)C2)n[nH]1 (stereo not drawn)  -8.81%
93. Cn1cc(CN2CCCC3(CCCCN3S(C)(=O)=O)C2)cn1 (stereo not drawn)  -9.02%
94. Cn1cc(CN2CCS(=O)(=O)C(C)(C)C2)cn1  -9.13%
95. CNC(=O)C(C)(C)N1CCC[C@H]1C(=O)NC1CC1  -9.14%
96. CC(C)COC(=O)N1[C@@H](c2ccco2)[C@@H](CO)C[C@]12CCCCNC2=O  -9.55%
97. NCCCNS(=O)(=O)Cc1ccc(Br)cc1  -9.57%
98. O=S(=O)(c1cccs1)N1CC[C@H]2[C@H]1CCN2CC1CC1  -9.72%
99. Cc1nc2n(n1)CC(NCc1c(Cl)ccc3cccnc13)CC2 (stereo not drawn)  -9.95%
100. COC(=O)c1cc(C(=O)N2CCOC(C)(C)C2)n(-c2ccccc2)n1  -10.1%
101. COc1ccc(N)c(N2CCN(C(C)=O)CC2)n1  -11%
102. COCCN(C)Cc1cc(Cl)ccc1OCC(O)CN1CCCCCC1 (stereo not drawn)  -11.6%
103. c1csc(N2CCCN(Cc3noc(C4CC4)n3)CC2)n1  -11.8%
104. CN(C)c1ncc(CN2CCCC(Nc3ccc4c(c3)OCCO4)C2)s1 (stereo not drawn)  -12.3%
105. Cc1nc(Nc2cnccn2)cc(C2CCN(c3ncccn3)C2)n1 (stereo not drawn)  -12.7%
106. Cn1cc(C(NCc2ccc(F)cc2)c2cccc(F)c2)cn1 (stereo not drawn)  -13.5%
107. CNc1cc(-c2ccc(COCCN)cc2)c2cc[nH]c2n1  -13.6%
108. Cc1nc(CN2CCN(C(=O)c3ccnc(N(C)C)c3)CC2)cs1  -14.4%
109. Cn1cc(CN2CCCC3(CCCN3S(C)(=O)=O)C2)cn1 (stereo not drawn)  -16.8%
110. O=C(Nc1ccnn1Cc1ccccc1Cl)C1CCS(=O)(=O)C1 (stereo not drawn)  -17%
111. COc1ccc(CN2CCC3(CC2)CCN(CCN(C)C)C3=O)cc1  -18%
112. COc1cc(CNCc2ccnc(N3CCOCC3)c2)cc(Cl)c1OC  -18.7%
113. c1cncc(OCc2noc3c2CN(Cc2cccs2)CC3)c1  -24.1%

— ChEMBL document CHEMBL3507680, “University of Dundee, Gates Library screen for HepG2 cell viability”
